Paper PMC8039949, “A novel small-molecule PROTAC selectively promotes tau clearance to improve cognitive functions in Alzheimer-like models” (Theranostics, 2021)

Legend:
tau with Vhl (E3 ligase) = target: T1, tau with Vhl (E3 ligase) (Homo sapiens, UniProt P10636+P40337); assay: Co-immunoprecipitation of tau with Vhl and tau ubiquitination in HEK293-hTau cells; format: cell-based; settings: 20 μM for 6 h
T1 construct: expressed in transfected cells; host or cells: HEK293-hTau (tau stably expressed; VHL endogenous)
Protocol: Cell lysates were centrifuged at 12,000 g for 20 min at 4 °C and the supernatant were incubated with protein G agarose beads (Millipore, 16-266), pre-washed with cold PBS for 1 h at 4 °C to remove non-specific proteins. After centrifuged (14,000 g) at 4 °C for 15 min, the supernatant was collected and protein concentration was measured by BCA assay. The supernatant was sequentially incubated with primary antibodies (2 μg/100 μg) overnight at 4 °C with rotating in the first day and protein G agarose beads (20 μL/100 μL) the next day. After spin (6,000 g) for 2 min at 4 °C, the pellets were collected, washed with precooled washing buffer for 3 times, resuspended in buffer (50 mM Tris-HCl, pH 6.8, 2% SDS, 10% glycerol), boiled for 10 min, and analyzed by Western blotting.

HEK293-hTau cells = assay: CCK-8 cell viability assay; format: cell-based, human; settings: 0.01, 0.1, 1, 10, 20 and 100 μM, 24 h
Protocol: Cell viability was assessed using CCK-8 kit by following the manufacturer's instructions. The cells were seeded at a concentration of 5,000 cells per well in a 96-well plate and then treated with various concentrations of C004019 (0, 0.01, 0.1, 1, 10, 20 and 100 μM) for 24 h. After the treatments, the culture medium was removed, and 10 μL of CCK-8 in 90 μL of medium was added. After incubating for 30 min at 37 °C, the absorbance was measured at 450 nm using a microplate reader (BioTek, 250058).

tau [1] = target: tau (Mus musculus, UniProt P10637); assay: Intracerebroventricular infusion in wild-type mice, brain tau by Western blotting; format: in vivo; settings: 4 m-old wild-type mice, intracerebroventricular 5 μL, 200 μM
Protocol: (§1) For brain surgery and stereotaxic cerebroventricular drug delivery, the mice were placed in a stereotaxic apparatus and anesthetized with 2% isoflurane (RWD Life Science, R510-22) through a nose cone (300-500 mL/min, RWD Life Science, China, R500). The scalp was incised along the midline between the ears after the mice were sterilized with iodophors and 75% (vol/vol) alcohol. The holes were drilled stereotaxically in the skull at a cerebroventricular location (posterior 0.22 mm, lateral 0.9 mm, and ventral 2.3 mm relative to bregma). Using a microinjection system (Shenzhen RWD Life Technology Co., Ltd; RWD 69100), C004019 (5 μL, 200 μM) was infused at a rate of 0.5 μL/min. The needle was kept in place for 10 min before withdrawal. After the skin was sutured, the mice were placed on a heater for analepsia. For subcutaneous injection, C004019 was diluted with 20% HP-β-CD and injected under the skin on the back neck to reach a final concentration of 3 mg/kg (low dose) or 15 mg/kg (high dose).
The cells or hippocampal/cortex tissues were homogenized for ~ 30 min on ice in buffer [50 mM Tris·HCl pH 7.4-7.5, 100 mM NaCl, 1% (vol/vol) Triton X-100, 5 mM EDTA, 1:100 PMSF, 1:1,000 protease inhibitor cocktail containing 4-(2-Aminoethyl)-benzenesulfonyl fluoride hydrochloride, aprotinin, bestatin, leupeptin, E-64, and pepstatin A stored at 4 °C], and then centrifuged at 12,000 × g at 4 °C for 20 min. The supernatant was collected and the protein levels were analyzed using bicinchoninic acid (BCA, KF016, Sigma-Aldrich) by following the manufacturer's instruction (served as soluble protein). The pellet was further incubated with 8% (wt/vol) SDS buffer at 4 °C and then treated by ultrasonic wave to reach a complete resuspension. The suspension was spun (18,000 × g, 4 °C for 20 min) and the supernatant collected (served as insoluble fraction). The supernatant of different faction was respectively mixed with loading buffer (3:1, vol/vol) containing 200 mM Tris-HCl, pH 6.8, 8% SDS, 40% glycerol, and boiled for 10 min. […] Immunoreactive bands were quantitatively analyzed by Image J2x software.

amyloid-β plaque = assay: Congo red staining of amyloid-β plaque in 3xTg-AD mice; format: in vivo, mouse; settings: 9.5 m-old 3xTg-AD mice; subcutaneous 3 mg/kg every 6 days, 5 times
tau [2] = target: T2, tau (UniProt P10636+P40338, P618L); assay: Intracerebroventricular infusion in 3xTg-AD mice, brain tau by Western blotting and immunohistochemistry; format: in vivo, mouse; settings: 9.5 m-old 3xTg-AD mice; intracerebroventricular 5 μL, 200 μM; 48 h
T2 construct: tissue stock number 34830; host or cells: hippocampus and cortex of 9.5 m-old 3xTg-AD mice
Protocol: as §1, with “The needle was kept in place for 10 min before withdrawal. After the skin was sutured, the mice were placed on a heater for analepsia. For subcutaneous injection, C004019 was diluted with 20% HP-β-CD and injected under the skin on the back neck to reach a final concentration of 3 mg/kg (low dose) or 15 mg/kg (high dose).” left out
The cells or hippocampal/cortex tissues were homogenized for ~ 30 min on ice in buffer [50 mM Tris·HCl pH 7.4-7.5, 100 mM NaCl, 1% (vol/vol) Triton X-100, 5 mM EDTA, 1:100 PMSF, 1:1,000 protease inhibitor cocktail containing 4-(2-Aminoethyl)-benzenesulfonyl fluoride hydrochloride, aprotinin, bestatin, leupeptin, E-64, and pepstatin A stored at 4 °C], and then centrifuged at 12,000 × g at 4 °C for 20 min. The supernatant was collected and the protein levels were analyzed using bicinchoninic acid (BCA, KF016, Sigma-Aldrich) by following the manufacturer's instruction (served as soluble protein). […] Immunoreactive bands were quantitatively analyzed by Image J2x software. […]

Chain of tau (Mus musculus, UniProt P10637) (P10637 114-430 isoform P10637-2 limits assumed): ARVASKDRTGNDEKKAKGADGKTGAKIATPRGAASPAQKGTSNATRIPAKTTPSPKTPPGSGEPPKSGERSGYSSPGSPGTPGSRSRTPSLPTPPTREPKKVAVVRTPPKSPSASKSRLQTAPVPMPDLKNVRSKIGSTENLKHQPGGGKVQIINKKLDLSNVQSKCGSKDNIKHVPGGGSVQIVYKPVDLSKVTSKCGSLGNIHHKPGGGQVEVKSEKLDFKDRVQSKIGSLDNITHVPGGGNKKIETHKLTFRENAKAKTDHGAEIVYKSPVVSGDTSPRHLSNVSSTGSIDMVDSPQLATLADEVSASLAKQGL
T1 sequence (P10636 1-441 isoform P10636-8): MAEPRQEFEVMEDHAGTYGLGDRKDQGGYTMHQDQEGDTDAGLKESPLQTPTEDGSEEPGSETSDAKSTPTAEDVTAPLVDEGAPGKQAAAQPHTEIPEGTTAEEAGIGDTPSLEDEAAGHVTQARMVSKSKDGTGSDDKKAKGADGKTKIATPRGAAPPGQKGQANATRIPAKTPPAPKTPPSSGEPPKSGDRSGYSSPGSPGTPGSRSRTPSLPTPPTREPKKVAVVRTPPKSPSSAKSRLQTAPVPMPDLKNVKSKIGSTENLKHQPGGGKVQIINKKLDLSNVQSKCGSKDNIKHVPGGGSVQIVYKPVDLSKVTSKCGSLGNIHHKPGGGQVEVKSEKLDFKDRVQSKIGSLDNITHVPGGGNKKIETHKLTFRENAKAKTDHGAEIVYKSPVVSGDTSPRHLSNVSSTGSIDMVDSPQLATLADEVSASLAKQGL
T1 sequence (P40337 whole entry): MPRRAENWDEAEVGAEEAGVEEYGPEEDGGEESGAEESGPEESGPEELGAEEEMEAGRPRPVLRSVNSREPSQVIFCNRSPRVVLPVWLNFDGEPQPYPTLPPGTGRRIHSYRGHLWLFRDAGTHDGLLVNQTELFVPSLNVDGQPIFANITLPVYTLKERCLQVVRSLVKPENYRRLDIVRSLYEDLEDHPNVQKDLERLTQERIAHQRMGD
T1 sequence (Q15369 whole entry partner): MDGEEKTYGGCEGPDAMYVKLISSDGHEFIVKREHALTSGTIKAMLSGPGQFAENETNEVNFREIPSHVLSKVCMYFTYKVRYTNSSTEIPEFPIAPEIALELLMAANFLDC
T1 sequence (Q15370 whole entry partner): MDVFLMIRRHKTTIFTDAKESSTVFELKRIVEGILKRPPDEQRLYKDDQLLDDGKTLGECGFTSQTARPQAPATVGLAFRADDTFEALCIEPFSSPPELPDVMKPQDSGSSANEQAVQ
T1 sequence (Q13617 whole entry partner): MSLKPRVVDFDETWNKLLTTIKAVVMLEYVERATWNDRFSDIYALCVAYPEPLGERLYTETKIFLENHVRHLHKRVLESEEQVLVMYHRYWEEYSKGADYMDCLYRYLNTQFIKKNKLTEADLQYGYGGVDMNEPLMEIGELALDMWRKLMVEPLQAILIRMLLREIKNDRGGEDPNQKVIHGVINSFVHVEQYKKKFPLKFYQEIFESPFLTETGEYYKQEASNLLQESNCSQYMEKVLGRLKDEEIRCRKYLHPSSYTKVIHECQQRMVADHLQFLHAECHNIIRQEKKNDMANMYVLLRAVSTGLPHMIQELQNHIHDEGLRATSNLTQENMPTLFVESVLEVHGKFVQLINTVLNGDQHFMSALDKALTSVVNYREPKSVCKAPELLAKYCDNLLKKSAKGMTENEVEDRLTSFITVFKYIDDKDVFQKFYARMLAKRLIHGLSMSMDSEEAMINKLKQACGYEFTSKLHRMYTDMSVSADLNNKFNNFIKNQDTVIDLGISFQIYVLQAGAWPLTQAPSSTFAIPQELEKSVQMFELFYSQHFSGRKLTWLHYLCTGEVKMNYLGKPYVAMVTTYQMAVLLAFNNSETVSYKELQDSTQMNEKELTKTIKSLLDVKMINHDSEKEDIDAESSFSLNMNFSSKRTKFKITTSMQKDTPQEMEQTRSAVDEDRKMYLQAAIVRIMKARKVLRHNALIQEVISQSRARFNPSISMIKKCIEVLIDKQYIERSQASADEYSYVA
T1 sequence (P62877 whole entry partner): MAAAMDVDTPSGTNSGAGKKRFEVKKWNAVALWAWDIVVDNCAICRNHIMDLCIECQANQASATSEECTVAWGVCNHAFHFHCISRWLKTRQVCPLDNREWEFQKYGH
T2 sequence (P10636 1-383 isoform P10636-6 P243L): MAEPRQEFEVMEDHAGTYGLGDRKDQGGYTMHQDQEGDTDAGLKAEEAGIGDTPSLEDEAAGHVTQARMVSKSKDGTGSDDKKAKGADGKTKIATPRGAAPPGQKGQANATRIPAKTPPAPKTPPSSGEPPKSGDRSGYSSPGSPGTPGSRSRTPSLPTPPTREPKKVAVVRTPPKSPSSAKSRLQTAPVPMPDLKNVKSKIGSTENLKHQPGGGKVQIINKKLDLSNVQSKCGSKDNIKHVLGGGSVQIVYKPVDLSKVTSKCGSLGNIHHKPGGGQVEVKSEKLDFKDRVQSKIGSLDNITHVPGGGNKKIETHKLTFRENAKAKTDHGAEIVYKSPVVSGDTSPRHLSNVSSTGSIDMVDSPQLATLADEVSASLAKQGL
T2 sequence (P40338 whole entry, the tested form may be a part): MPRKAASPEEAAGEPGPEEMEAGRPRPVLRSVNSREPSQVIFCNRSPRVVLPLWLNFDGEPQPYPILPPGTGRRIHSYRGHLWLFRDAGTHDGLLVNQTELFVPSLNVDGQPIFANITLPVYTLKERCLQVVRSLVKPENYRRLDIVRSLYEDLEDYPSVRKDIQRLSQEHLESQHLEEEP
T2 sequence (P83940 whole entry partner, the tested form may be a part): as the sequence (Q15369 whole entry partner) above
T2 sequence (P62869 whole entry partner, the tested form may be a part): as the sequence (Q15370 whole entry partner) above, with D40E, C89R, S110G counted along it

Which results are given for `CC(=O)N1CCCN(c2nc(NCCc3cccs3)nc(N(C)CC(=O)NCCOCCOCCOCC(=O)N[C@H](C(=O)N3C[C@H](O)C[C@H]3C(=O)NCc3ccc(-c4scnc4C)cc3)C(C)(C)C)n2)CC1` [C004019]?
ubiquitination level of tau (tau with Vhl (E3 ligase)): significantly increased the ubiquitination level of tau; cell viability (CCK8 assay) (HEK293-hTau cells): did not induce any significant change in cell viability; hippocampal tau level (tau [1]; 24 h): most remarkable hippocampal tau reduction; brain cortex tau level (tau [1]; 24 h and 48 h): significant reduction of tau was only detected at 48 h but not 24 h; hippocampal tau level (tau [1]; 48 h): still very significant; amyloid-β plaque (Congo red staining) (amyloid-β plaque): No significant effects on amyloid-β plaque; total tau and p-tau levels in hippocampus and cortex (tau [2]): reduced total tau and the p-tau levels
